# Measured values taken from patent publication US20060069132A1, “Azolecarboxamide herbicides” (priority 2004, published 2006).
# Legend:
# [1] = tested on: barnyardgrass; experiment: Test B pre-/postemergence herbicide test; type: in vivo, Echinochloa crus-galli; conditions: for Plant response rating (0 to 100 scale), Barnyardgrass: 0 is no effect, 100 is complete control, preemergence; for Barnyardgrass plant response rating: Postemergence, scale 0 (no effect) to 100 (complete control)
# Summary of the method: (§1)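 Herbicidal effect was judged by eye on a 0–100 scale after plants stood 13 to 15 days in the greenhouse following pre- or postemergence treatment with surfactant-containing formulations.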
# [2] = tested on: Surinam grass; experiment: Test B pre-/postemergence herbicide test; type: in vivo, Urochloa decumbens; conditions: for Plant response rating (0 to 100 scale), Surinam Grass: 0 is no effect, 100 is complete control, preemergence
# Summary of the method: (§2)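 Greenhouse pot assay with simultaneous preemergence (treated seed) and postemergence (2–18 cm seedlings) applications of surfactant-containing, non-phytotoxic solvent formulations. Response scored visually 13–15 days later on a 0–100 scale, 100 meaning complete control.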
# [3] = tested on: cocklebur; experiment: Test B pre-/postemergence herbicide test; type: in vivo, Xanthium strumarium; conditions: for Plant response rating (0 to 100 scale), Cocklebur: 0 is no effect, 100 is complete control, preemergence
# Summary of the method: as §1
# [4] = tested on: corn; experiment: Test B pre-/postemergence herbicide test; type: in vivo, Zea mays; conditions: for Plant response rating (0 to 100 scale), Corn: 0 is no effect, 100 is complete control, preemergence
# Summary of the method: as §2
# [5] = tested on: large crabgrass; experiment: Test B pre-/postemergence herbicide test; type: in vivo, Digitaria sanguinalis; conditions: for Plant response rating (0 to 100 scale), Crabgrass, Large: 0 is no effect, 100 is complete control, preemergence
# Summary of the method: as §2
# [6] = tested on: giant foxtail; experiment: Test B pre-/postemergence herbicide test; type: in vivo, Setaria faberi; conditions: for Plant response rating (0 to 100 scale), Foxtail, Giant: 0 is no effect, 100 is complete control, preemergence
# Summary of the method: as §2
# [7] = tested on: lambsquarters; experiment: Test B pre-/postemergence herbicide test; type: in vivo, Chenopodium album; conditions: for Plant response rating (0 to 100 scale), Lambsquarters: 0 is no effect, 100 is complete control, preemergence
# Summary of the method: as §2
# [8] = tested on: morningglory; experiment: Test B pre-/postemergence herbicide test; type: in vivo, Ipomoea coccinea; conditions: for Plant response rating (0 to 100 scale), Morningglory: 0 is no effect, 100 is complete control, preemergence
# Summary of the method: as §1
# [9] = tested on: pigweed; experiment: Test B pre-/postemergence herbicide test; type: in vivo, Amaranthus retroflexus; conditions: for Plant response rating (0 to 100 scale), Pigweed: 0 is no effect, 100 is complete control, preemergence
# Summary of the method: as §2
# [10] = tested on: velvetleaf; experiment: Test B pre-/postemergence herbicide test; type: in vivo, Abutilon theophrasti; conditions: for Plant response rating (0 to 100 scale), Velvetleaf: 0 is no effect, 100 is complete control, preemergence
# Summary of the method: as §2
# [11] = tested on: blackgrass; experiment: Test B postemergence herbicide test; type: in vivo, Alopecurus myosuroides
# Summary of the method: (§3)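 Treated at 2-leaf (paddy) or 1–4-leaf, 2–18 cm (postemergence); greenhouse 13–15 d; visual score vs control, 0 none to 100 complete control; dash = not tested.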
# [12] = tested on: wheat; experiment: Test B postemergence herbicide test; type: in vivo, Triticum aestivum; design: key to Wheat plant response rating: 0 = no effect, 100 = complete control
# Summary of the method: (§4)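 After treating 2-leaf paddy plants or 2–18 cm postemergence plants (1 to 4 leaves) with formulated chemical, researchers kept them in a greenhouse for 13–15 days. Effects were judged visually versus controls: 0 indicates none, 100 total control.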
# [13] = tested on: wild oat; experiment: Test B postemergence herbicide test; type: in vivo, Avena fatua
# Summary of the method: as §4
# [14] = tested on: rice; experiment: Test B flooded paddy test; type: in vivo, Oryza sativa; conditions: scale 0 to 100 (0 no effect, 100 complete control)
# Summary of the method: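 Greenhouse test; postemergence application to plants at 1–4 leaves (2–18 cm); paddy species at 2 leaves; evaluated visually vs controls at 13–15 days; scale 0–100 (100 = complete control).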
# [15] = tested on: small flower umbrella sedge; experiment: Test B flooded paddy test; type: in vivo, Cyperus difformis; conditions: scale 0 to 100 (0 no effect, 100 complete control)
# Summary of the method: as §3
# [16] = tested on: ducksalad; experiment: Test B flooded paddy test; type: in vivo, Heteranthera limosa; conditions: scale 0 to 100 (0 no effect, 100 complete control)
# Summary of the method: as §3
# [17] = tested on: barnyardgrass; experiment: Test B flooded paddy test; type: in vivo, Echinochloa crus-galli; conditions: scale 0 to 100 (0 no effect, 100 complete control)
# Summary of the method: as §3
# [18] = Postemergence, 500 g ai/ha, scale 0 (no effect) to 100 (complete control)
# [19] = postemergence, 125 g ai/ha, scale 0 to 100
# [20] = 500 g ai/ha, scale 0 to 100, 0 no effect, 100 complete control, preemergence
smiles,measurement,setting,value
Cc1nn(C(C)(C)C)nc1C(=O)Nc1cncc(C(=O)N(C)C)c1 [Compound 426],"Plant response rating (0 to 100 scale), Barnyardgrass",[1]; 125 g ai/ha,10
same,Barnyardgrass plant response rating,[1]; 125 g ai/ha,0
same,Barnyardgrass plant response rating,[1]; 500 g ai/ha,20
same,"Plant response rating (0 to 100 scale), Surinam Grass",[2]; 125 g ai/ha,10
same,Surinam Grass plant response rating,[2]; [18],20
same,Surinam Grass plant response rating,[2]; [19],10
same,"Plant response rating (0 to 100 scale), Cocklebur",[3]; 125 g ai/ha,0
same,Cocklebur plant response rating,[3]; [18],20
same,Cocklebur plant response rating,[3]; [19],10
same,"Plant response rating (0 to 100 scale), Corn",[4]; 125 g ai/ha,0
same,Corn plant response rating,[4]; [18],10
same,Corn plant response rating,[4]; [19],10
same,"Plant response rating (0 to 100 scale), Crabgrass, Large",[5]; 125 g ai/ha,70
same,"Crabgrass, Large plant response rating",[5]; [18],20
same,"Crabgrass, Large plant response rating",[5]; [19],10
same,"Plant response rating (0 to 100 scale), Foxtail, Giant",[6]; 125 g ai/ha,0
same,"Foxtail, Giant plant response rating",[6]; [18],30
same,"Foxtail, Giant plant response rating",[6]; [19],20
same,"Plant response rating (0 to 100 scale), Lambsquarters",[7]; 125 g ai/ha,40
same,Lambsquarters plant response rating,[7]; [18],50
same,Lambsquarters plant response rating,[7]; [19],20
same,"Plant response rating (0 to 100 scale), Morningglory",[8]; 125 g ai/ha,0
same,Morningglory plant response rating,[8]; [18],50
same,Morningglory plant response rating,[8]; [19],20
same,"Plant response rating (0 to 100 scale), Pigweed",[9]; 125 g ai/ha,50
same,Pigweed plant response rating,[9]; [18],50
same,Pigweed plant response rating,[9]; [19],30
same,"Plant response rating (0 to 100 scale), Velvetleaf",[10]; 125 g ai/ha,10
same,Velvetleaf plant response rating,[10]; [18],40
same,Velvetleaf plant response rating,[10]; [19],30
same,Blackgrass plant response rating,[11]; [18],0
same,Blackgrass plant response rating,[11]; [19],0
same,Wheat plant response rating,[12]; [20],10
same,Wheat plant response rating,[12]; [18],0
same,Wheat plant response rating,[12]; [19],0
same,"Oat, Wild plant response rating",[13]; [18],0
same,"Oat, Wild plant response rating",[13]; [19],0
same,Rice plant response rating,[14]; 1000 g ai/ha,0
same,"Sedge, Umbrella plant response rating",[15]; 1000 g ai/ha,70
same,Ducksalad plant response rating,[16]; 1000 g ai/ha,70
same,Barnyardgrass plant response rating,[17]; 1000 g ai/ha,0
CC(C)(C)n1nc(Br)c(C(=O)Nc2cccc(C(=O)N3CC=CC3)c2)n1 [Compound 433],"Plant response rating (0 to 100 scale), Barnyardgrass",[1]; 125 g ai/ha,50
same,Barnyardgrass plant response rating,[1]; 125 g ai/ha,10
same,Barnyardgrass plant response rating,[1]; 500 g ai/ha,20
same,"Plant response rating (0 to 100 scale), Surinam Grass",[2]; 125 g ai/ha,20
same,Surinam Grass plant response rating,[2]; [18],30
same,Surinam Grass plant response rating,[2]; [19],20
same,"Plant response rating (0 to 100 scale), Cocklebur",[3]; 125 g ai/ha,10
same,Cocklebur plant response rating,[3]; [18],90
same,Cocklebur plant response rating,[3]; [19],40
same,"Plant response rating (0 to 100 scale), Corn",[4]; 125 g ai/ha,10
same,Corn plant response rating,[4]; [18],30
same,Corn plant response rating,[4]; [19],20
same,"Plant response rating (0 to 100 scale), Crabgrass, Large",[5]; 125 g ai/ha,90
same,"Crabgrass, Large plant response rating",[5]; [18],30
same,"Crabgrass, Large plant response rating",[5]; [19],20
same,"Plant response rating (0 to 100 scale), Foxtail, Giant",[6]; 125 g ai/ha,60
same,"Foxtail, Giant plant response rating",[6]; [18],40
same,"Foxtail, Giant plant response rating",[6]; [19],30
same,"Plant response rating (0 to 100 scale), Lambsquarters",[7]; 125 g ai/ha,70
same,Lambsquarters plant response rating,[7]; [18],80
same,Lambsquarters plant response rating,[7]; [19],40
same,"Plant response rating (0 to 100 scale), Morningglory",[8]; 125 g ai/ha,40
same,Morningglory plant response rating,[8]; [18],80
same,Morningglory plant response rating,[8]; [19],50
same,"Plant response rating (0 to 100 scale), Pigweed",[9]; 125 g ai/ha,100
same,Pigweed plant response rating,[9]; [18],70
same,Pigweed plant response rating,[9]; [19],50
same,"Plant response rating (0 to 100 scale), Velvetleaf",[10]; 125 g ai/ha,40
same,Velvetleaf plant response rating,[10]; [18],50
same,Velvetleaf plant response rating,[10]; [19],10
same,Blackgrass plant response rating,[11]; [18],40
same,Blackgrass plant response rating,[11]; [19],30
same,Wheat plant response rating,[12]; [20],50
same,Wheat plant response rating,[12]; [18],50
same,Wheat plant response rating,[12]; [19],40
same,"Oat, Wild plant response rating",[13]; [18],60
same,"Oat, Wild plant response rating",[13]; [19],50
same,Rice plant response rating,[14]; 125 g ai/ha,0
same,"Sedge, Umbrella plant response rating",[15]; 125 g ai/ha,70
same,Ducksalad plant response rating,[16]; 125 g ai/ha,60
same,Barnyardgrass plant response rating,[17]; 125 g ai/ha,30
C=CCN(CC=C)C(=O)c1cccc(NC(=O)c2nn(C(C)(C)C)nc2C)n1 [Compound 439],Barnyardgrass plant response rating,[1]; 125 g ai/ha,0
same,Barnyardgrass plant response rating,[1]; 500 g ai/ha,0
same,Surinam Grass plant response rating,[2]; [18],0
same,Surinam Grass plant response rating,[2]; [19],0
same,Cocklebur plant response rating,[3]; [18],0
same,Cocklebur plant response rating,[3]; [19],0
same,Corn plant response rating,[4]; [18],0
same,Corn plant response rating,[4]; [19],0
same,"Crabgrass, Large plant response rating",[5]; [18],0
same,"Crabgrass, Large plant response rating",[5]; [19],0
same,"Foxtail, Giant plant response rating",[6]; [18],0
same,"Foxtail, Giant plant response rating",[6]; [19],0
same,Lambsquarters plant response rating,[7]; [18],0
same,Lambsquarters plant response rating,[7]; [19],0
same,Morningglory plant response rating,[8]; [18],30
same,Morningglory plant response rating,[8]; [19],0
same,Pigweed plant response rating,[9]; [18],10
same,Pigweed plant response rating,[9]; [19],0
same,Velvetleaf plant response rating,[10]; [18],0
same,Velvetleaf plant response rating,[10]; [19],0
same,Blackgrass plant response rating,[11]; [18],10
same,Blackgrass plant response rating,[11]; [19],0
same,Wheat plant response rating,[12]; [20],0
same,Wheat plant response rating,[12]; [18],10
same,Wheat plant response rating,[12]; [19],0
same,"Oat, Wild plant response rating",[13]; [18],10
same,"Oat, Wild plant response rating",[13]; [19],0
same,Rice plant response rating,[14]; 125 g ai/ha,0
same,"Sedge, Umbrella plant response rating",[15]; 125 g ai/ha,0
same,Ducksalad plant response rating,[16]; 125 g ai/ha,0
same,Barnyardgrass plant response rating,[17]; 125 g ai/ha,0
